Experimental data reported in patent US4839374A, “4-((Bicyclic heterocyclyl)-methyl and -hetero)-piperidines” (Janssen Pharmaceutica, N.V., priority 1987, dated 1989).

Tested on: compound 48/80-induced lethality
Assay: Protection of rats from compound 48/80-induced lethality
Format: in vivo, rats of an inbred Wistar strain
Settings: Rattus norvegicus, 4 h, read-out: Compound 48/80 lethality test in rats ED50, s.c. or p.o. 1 h before compound 48/80 0.5 mg/kg i.v.; protection of 50% of animals, survival after 4 hours
Method: Protection of rats from compound 48/80-induced lethality
The protection from compound 48/80-induced lethal circulatory collapse appears to be a simple way of evaluating quantitatively the antihistaminic activity of test compounds. Male rats of an inbred Wistar strain, weighing 240-260 g were used in the experiment. After overnight starvation the rats were transferred to conditioned laboratories (temp.=21±1° C., relative humidity=65+5%). The rats were treated subcutaneously or orally with a test compound or with the solvent (NaCl solution, 0.9%). […] Survival after 4 hours is therefore considered to be a safe criterion of a protective effect of drug administration. The ED50 -values of the compounds of formula (I) are listed in the first column of tables 1 to 4. Said ED50 -values are the values in mg/kg body weight at which the tested compounds protect 50% of the tested animals against compound 48/80-induced lethality. The compounds of formula (I) and the pharmaceutically acceptable acid addition salts thereof are also potent serotonin-antagonists. The potency of the subject compounds as serotonin-antagonists is clearly evidenced by the results obtained in the following tests wherein the antagonistic activity of the subject compounds on the effect of serotonin is examined.

Structure (SMILES) | ED50
c1ccc(Cn2c(CC3CCN(CCNc4nccs4)CC3)nc3ccccc32)cc1 [Compound 363] | 0.04 mg/kg
O=C(NCCN1CCC(Cc2nc3ccccc3n2Cc2ccc(F)cc2)CC1)c1cc2ccccc2oc1=O [Compound 445, N-[2-[4-[[1-[(4-fluorophenyl)methyl]-1H-benzimidazol-2-yl]methyl]-1-piperidinyl]ethyl]-2-oxo-2H-1-benzopyran-3-carboxamide] | 0.16 mg/kg
CN1CCC(Cc2nc3ccccc3n2Cc2ccco2)CC1 [Compound 86] | 0.01 mg/kg
O=c1oc2ccccc2cc1CCN1CCC(Cc2nc3ccccc3n2Cc2cscn2)CC1 [Compound 265] | 0.02 mg/kg
COc1ccc(CCN2CCC(Cc3nc4ncccc4n3Cc3ccc(F)cc3)CC2)cc1 [Compound 203, 1-[(4-fluorophenyl)methyl]-2-[[1-[2-(4-methoxyphenyl)ethyl]-4-piperidinyl]methyl]-1H-imidazo-[4,5-b]pyridine] | 0.04 mg/kg
Fc1ccc(Cn2c(CC3CCN(Cc4ccccc4)CC3)nc3ncccc32)cc1 [Compound 23, 1-[(4-fluorophenyl)methyl]-2-[[1-(phenylmethyl)-4-piperidinyl]methyl]-1H-imidazo[4,5-b]pyridine] | 0.08 mg/kg
Fc1ccc(Cn2c(CC3CCN(CCNc4cnccn4)CC3)nc3ccccc32)cc1 [Compound 368] | 0.01 mg/kg
OC(COc1ccc2ccccc2c1)CN1CCC(Cc2nc3ccccc3n2Cc2ccc(F)cc2)CC1 (stereo not drawn) [Compound 116, 4-[[1-[(4-fluorophenyl)methyl]-1H-benzimidazol-2-yl]methyl]-α-[(2-naphthalenyloxy)methyl]-1-piperidineethanol] | 0.16 mg/kg
CNCCN1CCC(Cc2nc3ccccc3n2Cc2ccc(F)cc2)CC1 [Compound 513, 4[[1-[(4-fluorophenyl)methyl]-1H-benzimidazol-2-yl]methyl]-N-methyl-1-piperidineethanamine] | 0.08 mg/kg
Cc1nc2n(c(=O)c1CCN1CCC(Cc3nc4cccnc4n3Cc3ccccn3)CC1)CCCC2 [Compound 258] | 0.08 mg/kg
Fc1ccc(Cn2c(CC3CCNCC3)nc3cccnc32)cc1 [Compound 45, 3-[(4-fluorophenyl)methyl]-2-(4-piperidinylmethyl)-3H-imidazo[4,5-b]-pyridine] | 0.04 mg/kg
Cn1cnc([N+](=O)[O-])c1NCCN1CCC(Cc2nc3ccccc3n2Cc2ccc(F)cc2)CC1 [Compound 377, 4-[[1-[(4-fluorophenyl)methyl]-1H-benzimidazol-2-yl]methyl]-N-(1-methyl-4-nitro-1H-imidazol-5-yl)-1-piperidineethanamine] | 0.16 mg/kg
C[C@@H]1CN(CCNc2ncccn2)CC[C@@H]1Oc1nc2ccccc2n1Cc1ccc(F)cc1 (relative stereo) [Compound 349, cis-N-[2-[4-[[1-[(4-fluorophenyl)methyl]-1H-benzimidazol-2-yl]oxy]-3-methyl-1-piperidinyl]ethyl]-2-pyrimidinamine] | 0.08 mg/kg
OCCN1CCC(Cc2nc3cccnc3n2Cc2ccc(F)cc2)CC1 [Compound 115, 4-[[3-[(4-fluorophenyl)methyl]-3H-imidazo[4,5-b]pyridin-2-yl]methyl]-1-piperidineethanol] | 0.16 mg/kg
Fc1ccc(Cn2c(CC3CCN(C4CCCCC4)CC3)nc3cccnc32)cc1 [Compound 98] | 0.04 mg/kg
OCCN1CCC(Oc2nc3ccccc3n2Cc2ccc(F)cc2)CC1 [Compound 105, 4-[[1-[(4-fluorophenyl)methyl]-1H-benzimidazol-2-yl]oxy]-1-piperidineethanol] | 0.01 mg/kg
Fc1ccc(Cn2c(CC3CCN(Cc4ccccc4)CC3)nc3ccncc32)cc1 [Compound 25, 3-[(4-fluorophenyl)methyl]-2-[[1-(phenylmethyl)-4-piperidinyl]-methyl]-3H-imidazo[4,5-c]pyridine] | 0.16 mg/kg
Cc1nc2n(c(=O)c1CCN1CCC(Cc3nc4ccccc4n3Cc3ccc(F)cc3)CC1)CCCS2 [Compound 158] | 0.04 mg/kg
O=c1oc2ccccc2cc1CCN1CCC(Cc2nc3ccccc3n2Cc2ccco2)CC1 [Compound 165] | 0.02 mg/kg

Structure (SMILES) | ED50
OCCN1CCC(Cc2nc3ccccc3n2Cc2ccccc2)CC1 [Compound 112] | 0.08 mg/kg
CSc1nc2cncnc2n1CCN1CCC(Cc2nc3ccccc3n2Cc2ccc(F)cc2)CC1 [Compound 507, 9-[2-[4-[[1-[(4-fluorophenyl)methyl]-1H-benzimidazol-2-yl]methyl]-1-piperidinyl]ethyl]-8-(methylthio)-9H-purine] | 0.16 mg/kg
Fc1ccc(Cn2c(CC3CCN(CCNCc4ccccn4)CC3)nc3ccccc32)cc1 [Compound 427, N-[2-[4-[[1-[(4-fluorophenyl)methyl]-1H-benzimidazol-2-yl]methyl]-1-piperidinyl]ethyl]-2-pyridinemethanamine] | 0.16 mg/kg
O=S(=O)(CCN1CCC(Cc2nc3ccccc3n2Cc2ccc(F)cc2)CC1)c1ccccc1 [Compound 130] | 0.16 mg/kg
Fc1ccc(Cn2c(OC3CCN(CCNc4nccs4)CC3)nc3ccccc32)cc1 [Compound 355] | 0.08 mg/kg
Fc1ccc(Cn2c(CC3CCN(CCNc4ccncn4)CC3)nc3ccccc32)cc1 [Compound 501] | 0.04 mg/kg
Cc1nc2ccccn2c(=O)c1CCN1CCC(Cc2nc3ccccc3n2Cc2cccs2)CC1 [Compound 257] | 0.02 mg/kg
c1ccc(Cn2c(CC3CCN(CCNc4ncccn4)CC3)nc3cccnc32)cc1 [Compound 345] | 0.08 mg/kg
O=c1c2ccccc2[nH]c(=S)n1CCN1CCC(Cc2nc3cccnc3n2Cc2ccc(F)cc2)CC1 [Compound 463, 3-[2-[4-[[3-[(4-fluorophenyl)methyl]-3H-imidazo[4,5-b]pyridin-2-yl]methyl]-1-piperidinyl]ethyl]-2,3-dihydro-2-thioxo-4(1H)quinazolinone] | 0.08 mg/kg
COc1ccc(CCN2CCC(Cc3nc4ccccc4n3Cc3cscn3)CC2)cc1 [Compound 245, 2-[[1-[2-(4-methoxyphenyl)ethyl]-4-piperidinyl]methyl]-1-(4-thiazolylmethyl)-1H-benzimidazole] | 0.02 mg/kg
O=[N+]([O-])c1ccccc1NCCN1CCC(Cc2nc3ccccc3n2Cc2ccc(F)cc2)CC1 [Compound 366] | 0.31 mg/kg
Cc1nc2sccn2c(=O)c1CCN1CCC(Cc2nc3cccnc3n2Cc2ccco2)CC1 [Compound 173] | 0.01 mg/kg
C=CCN1CCC(Cc2nc3ccccc3n2Cc2ccc(F)cc2)CC1 [Compound 144, 1-[(4-fluorophenyl)methyl]-2-[[1-(2-propenyl)-4-piperidinyl]methyl]-1H-benzimidazole] | 0.04 mg/kg
COc1ccc(CCN2CCC(Cc3nc4ccncc4n3Cc3ccc(F)cc3)CC2)cc1 [Compound 204, 3-[(4-fluorophenyl)methyl]-2-[[1-[2-(4-methoxyphenyl)ethyl]-4-piperidinyl]methyl]-3H-imidazo-[4,5-c]pyridine] | 0.08 mg/kg
Fc1ccc(Cn2c(CC3CCN(Cc4cn5cccnc5n4)CC3)nc3ccccc32)cc1 [Compound 183] | 0.01 mg/kg
Fc1ccc(Cn2c(CC3CCNCC3)nc3ncccc32)cc1 [Compound 48, 1-[(4-fluorophenyl)methyl]-2-(4-piperidinylmethyl)-1H-imidazo[4,5-b]-pyridine] | 0.16 mg/kg
COc1ccc(CCN2CC[C@@H](Oc3nc4ccccc4n3Cc3ccc(F)cc3)[C@H](C)C2)cc1 (relative stereo) [Compound 268] | 0.16 mg/kg
Cn1c(=O)n(CCN2CCC(Cc3nc4cccnc4n3Cc3ccco3)CC2)c(=O)c2ccccc21 [Compound 170] | 0.08 mg/kg
